Data as given in the supplement of paper PMC10307832.

Key:
Assay in all cases: relative viability (nuclei count vs DMSO), 5 days (fraction); higher = more cells survive
[1] = compound: C[C@]1(O)C[C@@H](c2nc(-c3ccc4ccc(-c5ccccc5)nc4c3)c3c(N)nccn32)C1 [Linsitinib] + Cc1nc(Nc2ncc(C(=O)Nc3c(C)cccc3Cl)s2)cc(N2CCN(CCO)CC2)n1 [Dasatinib] (partner 0.075 µM)
Method in brief: (§1)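 After 5 days of treatment, lung cancer cells in 1536-well plates were fixed and stained in a single step (final 0.05% Triton X-100, 1% formaldehyde, 1 ug/ml Hoechst) and their nuclei counted on 4× images. Treatment had been applied by pin tool the day after seeding as one drug alone or as a fixed anchor-drug dose with five library-drug doses (not always all listed) in √10 steps. Relative viability is the nuclei count of treated wells divided by that of vehicle wells, and values are medians of duplicate plates.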

[2] = compound: Cc1ccc(C(=O)N(CCCN)[C@@H](c2nc3cc(Cl)ccc3c(=O)n2Cc2ccccc2)C(C)C)cc1 [Ispinesib] + Cc1nc(NC(=O)N2CCC[C@H]2C(N)=O)sc1-c1ccnc(C(C)(C)C(F)(F)F)c1 [Alpelisib] (partner 2 µM)
Method in brief: as §1

[3] = compound: Cc1ccc(C(=O)N(CCCN)[C@@H](c2nc3cc(Cl)ccc3c(=O)n2Cc2ccccc2)C(C)C)cc1 [Ispinesib] + CCNC(=O)c1noc(-c2cc(C(C)C)c(O)cc2O)c1-c1ccc(CN2CCOCC2)cc1 [Luminespib] (partner 0.01 µM)
Method in brief: as §1

[4] = compound: C[C@]1(O)C[C@@H](c2nc(-c3ccc4ccc(-c5ccccc5)nc4c3)c3c(N)nccn32)C1 [Linsitinib] + Cc1cc(Nc2cc(N3CCN(C)CC3)nc(Sc3ccc(NC(=O)C4CC4)cc3)n2)n[nH]1 [Tozasertib] (partner 0.1 µM)
Method in brief: as §1

Cell Line | relative viability ([1]; first compound 0.01 µM) | relative viability ([1]; first compound 0.03162 µM) | relative viability ([1]; first compound 0.1 µM) | relative viability ([1]; first compound 0.3162 µM) | relative viability ([1]; first compound 1 µM) | relative viability ([2]; first compound 0.001 µM) | relative viability ([2]; first compound 0.003162 µM) | relative viability ([2]; first compound 0.01 µM) | relative viability ([2]; first compound 0.03162 µM) | relative viability ([2]; first compound 0.1 µM) | relative viability ([3]; first compound 0.001 µM) | relative viability ([3]; first compound 0.003162 µM) | relative viability ([3]; first compound 0.01 µM) | relative viability ([3]; first compound 0.03162 µM) | relative viability ([3]; first compound 0.1 µM) | relative viability ([4]; first compound 0.01 µM) | relative viability ([4]; first compound 0.03162 µM) | relative viability ([4]; first compound 0.1 µM) | relative viability ([4]; first compound 0.3162 µM) | relative viability ([4]; first compound 1 µM)
NCI-H460 | 0.578 | 0.393 | 0.441 | 0.34 | 0.146 | 0.584 | 0.45 | 0.667 | 0.0767 | 0.0288 | 0.022 | 0.0333 | 0.0413 | 0.0267 | 0.0268 | 0.476 | 0.381 | 0.508 | 0.328 | 0.367
EPLC-272H | 0.359 | 0.407 | – | – | 0.261 | 0.989 | 1.12 | 1.01 | 0.529 | 0.972 | 0.215 | 0.326 | 0.25 | 0.196 | 0.234 | 0.358 | 0.249 | – | – | 0.222
SK-LU-1 | 0.193 | – | 0.168 | 0.182 | 0.115 | 1.08 | 1.01 | 1.15 | 0.773 | 0.383 | 0.212 | 0.224 | 0.219 | 0.194 | 0.178 | 0.357 | – | 0.383 | 0.203 | 0.243
NCI-H322M | 0.244 | 0.256 | 0.229 | 0.223 | 0.26 | 0.866 | 0.889 | 0.846 | 0.467 | 0.66 | 0.992 | 0.888 | 0.729 | 0.612 | 0.58 | 0.44 | 0.455 | 0.568 | 0.399 | 0.463
NCI-H2405 | 0.189 | 0.207 | 0.202 | 0.34 | 0.18 | 0.922 | 0.647 | 0.763 | 0.717 | 0.364 | 0.651 | 0.733 | 0.677 | 0.637 | 0.52 | 0.726 | 0.755 | 0.729 | 0.666 | 0.497
NCI-H1666 | 0.854 | 0.767 | 0.853 | 0.64 | 0.473 | 1.07 | 0.936 | 0.988 | 0.567 | 0.388 | 1 | 0.973 | 0.946 | 0.887 | 0.501 | 0.595 | 0.628 | 0.587 | 0.545 | 0.434
NCI-H358 | 0.162 | 0.167 | 0.159 | 0.148 | 0.142 | 0.885 | 0.874 | 0.989 | 0.573 | 0.283 | 0.424 | 0.435 | 0.549 | 0.405 | 0.259 | 0.0907 | 0.0851 | 0.114 | 0.0862 | 0.0939
H3255 | 0.347 | 0.369 | 0.347 | 0.334 | 0.344 | 0.677 | 0.8 | 0.736 | 0.492 | 0.33 | 0.898 | 1.1 | 0.859 | 0.557 | 0.29 | 0.626 | 0.65 | 0.612 | 0.497 | 0.559
LCLC-103H | 0.444 | 0.517 | 0.474 | 0.428 | 0.368 | 0.986 | 1.07 | 1.03 | 0.833 | 0.943 | 0.95 | 1.08 | 1.08 | 0.752 | 0.785 | 0.534 | 0.496 | 0.497 | 0.472 | 0.331
NCI-H2347 | 0.3 | 0.339 | 0.317 | – | 0.3 | 1.04 | 1.13 | 1.18 | 0.94 | 0.655 | 0.375 | 0.503 | 0.624 | 0.359 | 0.469 | 0.557 | 0.669 | 0.571 | – | 0.414
LK-2 | 0.281 | 0.328 | 0.212 | 0.228 | 0.197 | 1.33 | 0.97 | 1.23 | 1.07 | 0.412 | 0.186 | 0.174 | 0.226 | 0.224 | 0.202 | 0.179 | 0.173 | 0.172 | 0.18 | 0.177
HCC-15 | 0.62 | 0.559 | 0.519 | – | 0.35 | 0.92 | 0.955 | 1.06 | 0.83 | 0.358 | 0.286 | 0.322 | 0.459 | 0.229 | 0.227 | 0.389 | 0.424 | 0.404 | – | 0.319
SW 1573 | 0.454 | 0.454 | 0.453 | 0.348 | 0.252 | 1 | 0.816 | 1.07 | 0.893 | 0.255 | 0.234 | 0.198 | 0.13 | 0.151 | 0.148 | 0.213 | 0.171 | 0.189 | 0.186 | 0.136
NCI-H838 | 0.273 | 0.258 | 0.267 | 0.227 | 0.225 | 1.17 | 1.06 | 1.1 | 1.04 | 0.426 | 0.302 | 0.325 | 0.278 | 0.322 | 0.268 | 0.277 | 0.209 | 0.295 | – | 0.221
RERF-LC-KJ | 0.75 | 0.964 | 0.697 | 0.543 | 0.454 | 0.836 | 1.32 | 0.77 | 0.794 | 0.631 | 1.49 | 1.2 | 0.958 | 0.259 | 0.442 | 0.508 | 0.558 | 0.573 | 0.523 | 0.441
NCI-H441 | 0.484 | 0.55 | 0.614 | 0.349 | 0.303 | 0.934 | 0.848 | 0.947 | 0.238 | 0.215 | 0.346 | 0.404 | 0.448 | 0.389 | 0.292 | 0.612 | 1.08 | 0.671 | 0.509 | 0.404
NCI-H2170 | 0.56 | 0.569 | 0.519 | 0.409 | 0.488 | 0.892 | 0.765 | 0.947 | 0.603 | 0.484 | 0.74 | 0.53 | 0.964 | 0.351 | 0.448 | 0.732 | 0.76 | 0.681 | 0.513 | 0.678
